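Test compounds were applied to cells in 96-well plates for 48 hours at 5 doses. At the GI50, growth is halved. TGI marks complete inhibition of growth.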
Legend:
Test in all cases: NCI tumour cell line growth inhibition, 48 h
[1] = tested on: 786-0 renal
[2] = tested on: A498 renal
[3] = tested on: A549 NSCLC
[4] = tested on: ACHN renal
[5] = tested on: BT-549 breast
[6] = tested on: CAKI-1 renal
[7] = tested on: CCRF-CEM leukemia
[8] = tested on: COLO 205 colon
[9] = tested on: DU-145 prostate
[10] = tested on: EKVX NSCLC
[11] = tested on: HCC-2998 colon
[12] = tested on: HCT-116 colon
[13] = tested on: HCT-15 colon
[14] = tested on: HL-60(TB) leukemia
[15] = tested on: HOP-62 NSCLC
[16] = tested on: HOP-92 NSCLC
[17] = tested on: HS 578T breast
[18] = tested on: HT29 colon
[19] = tested on: IGROV1 ovarian
[20] = tested on: K-562 leukemia
[21] = tested on: KM12 colon
[22] = tested on: LOX IMVI melanoma
[23] = tested on: M14 melanoma
[24] = tested on: MALME-3M melanoma
[25] = tested on: MCF7 breast
[26] = tested on: MDA-MB-231 breast
[27] = tested on: MDA-MB-435
[28] = tested on: MDA-MB-468 breast
[29] = tested on: MOLT-4 leukemia
[30] = tested on: NCI-H226 lung
[31] = tested on: NCI-H23 lung
[32] = tested on: NCI-H460 lung
[33] = tested on: NCI-H522 lung
[34] = tested on: NCI/ADR-RES ovarian
[35] = tested on: OVCAR-3 ovarian
[36] = tested on: OVCAR-4 ovarian
[37] = tested on: OVCAR-5 ovarian
[38] = tested on: OVCAR-8 ovarian
[39] = tested on: PC-3 prostate
[40] = tested on: RPMI-8226 leukemia
[41] = tested on: RXF 393 renal
[42] = tested on: SF-268 CNS
[43] = tested on: SF-295 CNS
[44] = tested on: SF-539 CNS
[45] = tested on: SK-MEL-2 melanoma
[46] = tested on: SK-MEL-28 melanoma
[47] = tested on: SK-MEL-5 melanoma
[48] = tested on: SK-OV-3 ovarian
[49] = tested on: SN12C renal
[50] = tested on: SNB-19 CNS
[51] = tested on: SNB-75 CNS
[52] = tested on: SR leukemia
[53] = tested on: SW-620 colon
[54] = tested on: T-47D breast
[55] = tested on: TK-10 renal
[56] = tested on: U251 CNS
[57] = tested on: UACC-257 melanoma
[58] = tested on: UACC-62 melanoma
[59] = tested on: UO-31 renal

c1ccc(CSc2nnc(-c3ccc4nc(-c5ccccc5)[nH]c4c3)o2)cc1
GI50 [1]: 8.83 µM | TGI [1]: 22.9 µM | GI50 [2]: 12.4 µM | TGI [2]: 25.4 µM | GI50 [3]: 12 µM | TGI [3]: 28.7 µM | GI50 [4]: 14.3 µM | TGI [4]: 28 µM | GI50 [5]: 12.8 µM | TGI [5]: 30.2 µM | GI50 [6]: 10.5 µM | TGI [6]: 22.2 µM | GI50 [7]: 8.83 µM | TGI [7]: > 100 µM | GI50 [8]: 32.6 µM | TGI [8]: > 100 µM | GI50 [9]: 16.2 µM | TGI [9]: 37 µM | GI50 [10]: 14.5 µM | TGI [10]: > 100 µM | GI50 [11]: 34.8 µM | TGI [11]: > 100 µM | GI50 [12]: 11.9 µM | TGI [12]: 25.7 µM | GI50 [13]: 8.29 µM | TGI [13]: 28.8 µM | GI50 [14]: 24.2 µM | TGI [14]: > 100 µM | GI50 [15]: 20.2 µM | TGI [15]: 44.8 µM | GI50 [16]: 13.3 µM | TGI [16]: 39.9 µM | GI50 [17]: 18.8 µM | TGI [17]: 57.2 µM | GI50 [18]: 6.24 µM | TGI [18]: > 100 µM | GI50 [19]: 20.4 µM | TGI [19]: 46 µM | GI50 [20]: 8.05 µM | TGI [20]: > 100 µM | GI50 [21]: 29.4 µM | TGI [21]: > 100 µM | GI50 [22]: 15.8 µM | TGI [22]: 34 µM | GI50 [23]: 14.6 µM | TGI [23]: 36.5 µM | GI50 [24]: 12.5 µM | TGI [24]: 28.3 µM | GI50 [25]: 11.1 µM | TGI [25]: 26.4 µM | GI50 [26]: 16.8 µM | TGI [26]: 34.7 µM | GI50 [27]: 12 µM | TGI [27]: 28.3 µM | GI50 [28]: 7.57 µM | TGI [28]: 27.7 µM | GI50 [29]: 5.75 µM | TGI [29]: > 100 µM | GI50 [30]: 12.6 µM | TGI [30]: 37.4 µM | GI50 [31]: 22.9 µM | TGI [31]: 73.5 µM | GI50 [32]: 12.3 µM | TGI [32]: 27.5 µM | GI50 [33]: 12.1 µM | TGI [33]: 39 µM | GI50 [34]: 11.1 µM | TGI [34]: 37.3 µM | GI50 [35]: 15.9 µM | TGI [35]: 33.6 µM | GI50 [36]: 11.1 µM | TGI [36]: 23.3 µM | GI50 [37]: 24.1 µM | TGI [37]: 97.7 µM | GI50 [38]: 14.6 µM | TGI [38]: 30.4 µM | GI50 [39]: 11.3 µM | TGI [39]: 32.3 µM | GI50 [40]: 7.03 µM | TGI [40]: > 100 µM | GI50 [41]: 4.77 µM | TGI [41]: 22.6 µM | GI50 [42]: 14.1 µM | TGI [42]: 38.8 µM | GI50 [43]: 10.4 µM | TGI [43]: 24 µM | GI50 [44]: 11.3 µM | TGI [44]: 23.4 µM | GI50 [45]: 17 µM | TGI [45]: 64.1 µM | GI50 [46]: 14.7 µM | TGI [46]: 33 µM | GI50 [47]: 7.25 µM | TGI [47]: > 100 µM | GI50 [48]: 18.7 µM | TGI [48]: 48.5 µM | GI50 [49]: 12.1 µM | TGI [49]: 25.7 µM | GI50 [50]: 14.3 µM | TGI [50]: 30 µM | GI50 [51]: 10.8 µM | TGI [51]: 24.8 µM | GI50 [52]: 22.4 µM | TGI [52]: > 100 µM | GI50 [53]: 17.8 µM | TGI [53]: 40.3 µM | GI50 [54]: 3.6 µM | TGI [54]: 19.1 µM | GI50 [55]: 14.8 µM | TGI [55]: 29.7 µM | GI50 [56]: 13.8 µM | TGI [56]: 29.8 µM | GI50 [57]: 23.6 µM | TGI [57]: 85.2 µM | GI50 [58]: 13.8 µM | TGI [58]: 31.4 µM | GI50 [59]: 11.3 µM | TGI [59]: 23.7 µM

N/C(=N\c1nc2ccccc2s1)NC(=O)Nc1ccccc1Br
GI50 [1]: 0.17 µM | GI50 [2]: > 38.2 µM | TGI [2]: > 58.4 µM | GI50 [3]: 0.282 µM | GI50 [4]: 0.244 µM | GI50 [5]: 0.256 µM | TGI [5]: 7.18 µM | GI50 [6]: 0.0925 µM | GI50 [7]: 0.118 µM | GI50 [8]: 0.0964 µM | TGI [8]: 0.328 µM | GI50 [9]: 0.14 µM | GI50 [10]: 0.183 µM | TGI [10]: > 76.9 µM | GI50 [11]: 0.192 µM | TGI [11]: 3.39 µM | GI50 [12]: 0.115 µM | TGI [12]: 3.63 µM | GI50 [13]: 0.116 µM | GI50 [14]: 0.0893 µM | GI50 [15]: 0.145 µM | TGI [15]: > 32 µM | TGI [16]: > 28.1 µM | GI50 [17]: 0.0798 µM | TGI [17]: > 25.5 µM | GI50 [18]: 0.0921 µM | TGI [18]: 0.286 µM | GI50 [19]: 0.164 µM | TGI [19]: > 35 µM | GI50 [20]: 0.0753 µM | TGI [20]: > 100 µM | GI50 [21]: 0.125 µM | GI50 [22]: 0.235 µM | TGI [22]: 8.74 µM | GI50 [23]: 0.0768 µM | GI50 [24]: 0.151 µM | TGI [24]: > 25 µM | GI50 [25]: 0.119 µM | TGI [25]: > 91.6 µM | GI50 [26]: 0.148 µM | TGI [26]: 1.43 µM | GI50 [27]: < 0.0372 µM | TGI [27]: 0.0767 µM | GI50 [28]: 0.419 µM | TGI [28]: 1.66 µM | GI50 [29]: 0.165 µM | TGI [29]: > 33.8 µM | GI50 [30]: 0.723 µM | TGI [30]: 8.73 µM | GI50 [31]: 0.146 µM | TGI [31]: > 20.6 µM | GI50 [32]: 0.116 µM | GI50 [33]: < 0.0485 µM | TGI [33]: 0.169 µM | GI50 [34]: 0.0101 µM | TGI [34]: 0.0406 µM | GI50 [35]: 0.102 µM | TGI [35]: 1.34 µM | GI50 [36]: 6.21 µM | TGI [36]: > 23.5 µM | GI50 [37]: 0.22 µM | GI50 [38]: 0.148 µM | GI50 [39]: 0.162 µM | TGI [39]: > 53.1 µM | GI50 [40]: 0.149 µM | GI50 [42]: 0.801 µM | TGI [42]: > 35 µM | GI50 [43]: 0.104 µM | TGI [43]: 3.86 µM | GI50 [44]: 0.0693 µM | TGI [44]: 0.195 µM | GI50 [45]: 0.0399 µM | TGI [45]: 10.8 µM | GI50 [46]: 1.43 µM | TGI [46]: > 100 µM | GI50 [47]: 0.103 µM | TGI [47]: 0.697 µM | GI50 [48]: 0.188 µM | TGI [48]: > 32.2 µM | GI50 [49]: 0.194 µM | GI50 [50]: 0.178 µM | TGI [50]: > 43.1 µM | GI50 [51]: 0.0583 µM | TGI [52]: > 41.8 µM | GI50 [53]: 0.116 µM | TGI [53]: > 38.1 µM | GI50 [54]: 0.0513 µM | TGI [54]: > 100 µM | TGI [55]: > 28.4 µM | GI50 [56]: 0.116 µM | TGI [57]: > 100 µM | GI50 [58]: 0.0882 µM | TGI [58]: > 35.1 µM | GI50 [59]: 0.184 µM | TGI [59]: > 37.2 µM
